Source: the NIST ThermoML archive (doi:10.1021/acs.jced.9b00846)

Conditions: Liquid, Vibrating tube method

CCC(C)CC [3-methylpentane]
Conditions | mass density [kg/m3]
283.15 K, 96 kPa | 673.7
283.15 K, 4984 kPa | 678.4
283.15 K, 9983 kPa | 682.9
283.15 K, 14976 kPa | 687.2
283.15 K, 20022 kPa | 691.2
283.15 K, 25054 kPa | 695
283.15 K, 29951 kPa | 698.6
283.15 K, 35044 kPa | 702.1
283.15 K, 40019 kPa | 705.4
283.15 K, 45032 kPa | 708.6
283.15 K, 50012 kPa | 711.7
283.15 K, 54940 kPa | 714.6
283.15 K, 59937 kPa | 717.5
283.15 K, 64969 kPa | 720.3
288.15 K, 123 kPa | 669.3
288.15 K, 4981 kPa | 674.1
288.15 K, 10014 kPa | 678.9
288.15 K, 14991 kPa | 683.2
288.15 K, 19942 kPa | 687.3
288.15 K, 25033 kPa | 691.3
288.15 K, 29989 kPa | 695
288.15 K, 35037 kPa | 698.6
288.15 K, 39987 kPa | 701.9
288.15 K, 45029 kPa | 705.2
288.15 K, 50061 kPa | 708.4
288.15 K, 54941 kPa | 711.3
288.15 K, 59951 kPa | 714.3
288.15 K, 65035 kPa | 717.1
293.15 K, 98 kPa | 664.7
293.15 K, 4913 kPa | 669.7
293.15 K, 9979 kPa | 674.6
293.15 K, 14916 kPa | 679.1
293.15 K, 19985 kPa | 683.5
293.15 K, 24964 kPa | 687.5
293.15 K, 30011 kPa | 691.3
293.15 K, 34951 kPa | 694.9
293.15 K, 40003 kPa | 698.4
293.15 K, 45015 kPa | 701.8
293.15 K, 49957 kPa | 705
293.15 K, 54949 kPa | 708.1
293.15 K, 60008 kPa | 711.1
293.15 K, 65001 kPa | 714
298.15 K, 123 kPa | 660.1
298.15 K, 4936 kPa | 665.3
298.15 K, 9999 kPa | 670.4
298.15 K, 15031 kPa | 675.1
298.15 K, 20036 kPa | 679.5
298.15 K, 25016 kPa | 683.7
298.15 K, 29992 kPa | 687.6
298.15 K, 34973 kPa | 691.3
298.15 K, 40043 kPa | 694.9
298.15 K, 45008 kPa | 698.3
298.15 K, 49987 kPa | 701.6
298.15 K, 54938 kPa | 704.8
298.15 K, 59982 kPa | 707.8
298.15 K, 65001 kPa | 710.8
303.15 K, 106 kPa | 655.4
303.15 K, 4970 kPa | 660.9
303.15 K, 9996 kPa | 666.1
303.15 K, 15043 kPa | 671.1
303.15 K, 20006 kPa | 675.6
303.15 K, 25024 kPa | 679.9
303.15 K, 29956 kPa | 683.9
303.15 K, 34990 kPa | 687.7
303.15 K, 39963 kPa | 691.4
303.15 K, 44991 kPa | 694.9
303.15 K, 49940 kPa | 698.2
303.15 K, 54932 kPa | 701.5
303.15 K, 59961 kPa | 704.6
303.15 K, 65012 kPa | 707.7
308.15 K, 109 kPa | 650.6
308.15 K, 4967 kPa | 656.3
308.15 K, 10001 kPa | 661.8
308.15 K, 14988 kPa | 666.8
308.15 K, 19945 kPa | 671.5
308.15 K, 25037 kPa | 676
308.15 K, 29968 kPa | 680.1
308.15 K, 35020 kPa | 684
308.15 K, 39963 kPa | 687.8
308.15 K, 44985 kPa | 691.4
308.15 K, 49992 kPa | 694.8
308.15 K, 54921 kPa | 698.1
308.15 K, 60008 kPa | 701.4
308.15 K, 64999 kPa | 704.4
313.15 K, 117 kPa | 645.9
313.15 K, 4981 kPa | 651.9
313.15 K, 9993 kPa | 657.5
313.15 K, 15145 kPa | 662.9
313.15 K, 20027 kPa | 667.6
313.15 K, 25088 kPa | 672.2
313.15 K, 30012 kPa | 676.4
313.15 K, 35003 kPa | 680.4
313.15 K, 40042 kPa | 684.3
313.15 K, 45054 kPa | 688
313.15 K, 49996 kPa | 691.5
313.15 K, 54926 kPa | 694.8
313.15 K, 60053 kPa | 698.2
313.15 K, 65063 kPa | 701.3
318.15 K, 107 kPa | 641.1
318.15 K, 4955 kPa | 647.4
318.15 K, 9991 kPa | 653.3
318.15 K, 15039 kPa | 658.8
318.15 K, 20021 kPa | 663.7
318.15 K, 25060 kPa | 668.4
318.15 K, 29991 kPa | 672.8
318.15 K, 34997 kPa | 676.9
318.15 K, 40044 kPa | 680.9
318.15 K, 44936 kPa | 684.6
318.15 K, 49998 kPa | 688.3
318.15 K, 55010 kPa | 691.7
318.15 K, 59996 kPa | 695.1
318.15 K, 65008 kPa | 698.3
323.15 K, 106 kPa | 636.3
323.15 K, 4980 kPa | 642.9
323.15 K, 9966 kPa | 649
323.15 K, 15009 kPa | 654.6
323.15 K, 20016 kPa | 659.8
323.15 K, 24987 kPa | 664.6
323.15 K, 30019 kPa | 669.1
323.15 K, 34996 kPa | 673.3
323.15 K, 40041 kPa | 677.4
323.15 K, 44988 kPa | 681.2
323.15 K, 49949 kPa | 684.9
323.15 K, 55004 kPa | 688.5
323.15 K, 59997 kPa | 691.8
323.15 K, 64995 kPa | 695.1
328.15 K, 4974 kPa | 638.3
328.15 K, 9983 kPa | 644.6
328.15 K, 14977 kPa | 650.4
328.15 K, 20010 kPa | 655.8
328.15 K, 25021 kPa | 660.8
328.15 K, 29956 kPa | 665.4
328.15 K, 34961 kPa | 669.7
328.15 K, 40039 kPa | 673.9
328.15 K, 45005 kPa | 677.9
328.15 K, 50036 kPa | 681.7
328.15 K, 54981 kPa | 685.2
328.15 K, 60023 kPa | 688.7
328.15 K, 65018 kPa | 692
333.15 K, 4969 kPa | 633.7
333.15 K, 9932 kPa | 640.2
333.15 K, 15031 kPa | 646.3
333.15 K, 19959 kPa | 651.8
333.15 K, 25022 kPa | 657
333.15 K, 29983 kPa | 661.7
333.15 K, 34948 kPa | 666.1
333.15 K, 39982 kPa | 670.4
333.15 K, 45015 kPa | 674.5
333.15 K, 49968 kPa | 678.3
333.15 K, 54981 kPa | 682
333.15 K, 59935 kPa | 685.5
333.15 K, 65077 kPa | 689
338.15 K, 5021 kPa | 629
338.15 K, 10019 kPa | 635.9
338.15 K, 15009 kPa | 642.1
338.15 K, 20030 kPa | 647.8
338.15 K, 25053 kPa | 653.1
338.15 K, 29999 kPa | 658
338.15 K, 34951 kPa | 662.6
338.15 K, 39974 kPa | 667
338.15 K, 45053 kPa | 671.2
338.15 K, 49966 kPa | 675.1
338.15 K, 54970 kPa | 678.8
338.15 K, 59984 kPa | 682.5
338.15 K, 65015 kPa | 685.9
343.15 K, 5000 kPa | 624.2
343.15 K, 10002 kPa | 631.4
343.15 K, 15025 kPa | 637.8
343.15 K, 20016 kPa | 643.7
343.15 K, 24973 kPa | 649.1
343.15 K, 29947 kPa | 654.2
343.15 K, 34977 kPa | 658.9
343.15 K, 39962 kPa | 663.4
343.15 K, 44924 kPa | 667.6
343.15 K, 50034 kPa | 671.8
343.15 K, 54984 kPa | 675.6
343.15 K, 59973 kPa | 679.3
343.15 K, 65018 kPa | 682.9
348.15 K, 4999 kPa | 619.4
348.15 K, 10005 kPa | 626.9
348.15 K, 15001 kPa | 633.6
348.15 K, 19997 kPa | 639.7
348.15 K, 24983 kPa | 645.3
348.15 K, 30044 kPa | 650.6
348.15 K, 34962 kPa | 655.3
348.15 K, 40008 kPa | 660
348.15 K, 44956 kPa | 664.3
348.15 K, 50006 kPa | 668.4
348.15 K, 54987 kPa | 672.4
348.15 K, 59977 kPa | 676.1
348.15 K, 65005 kPa | 679.8
353.15 K, 4969 kPa | 614.4
353.15 K, 9927 kPa | 622.1
353.15 K, 14990 kPa | 629.2
353.15 K, 20018 kPa | 635.5
353.15 K, 25032 kPa | 641.3
353.15 K, 29979 kPa | 646.6
353.15 K, 34952 kPa | 651.6
353.15 K, 39962 kPa | 656.4
353.15 K, 44947 kPa | 660.8
353.15 K, 49917 kPa | 665
353.15 K, 55013 kPa | 669.1
353.15 K, 59927 kPa | 672.9
353.15 K, 65026 kPa | 676.6
358.15 K, 4945 kPa | 609.3
358.15 K, 9952 kPa | 617.5
358.15 K, 15000 kPa | 624.7
358.15 K, 20004 kPa | 631.3
358.15 K, 25020 kPa | 637.3
358.15 K, 29990 kPa | 642.7
358.15 K, 34993 kPa | 647.8
358.15 K, 40000 kPa | 652.7
358.15 K, 44971 kPa | 657.2
358.15 K, 49932 kPa | 661.5
358.15 K, 54965 kPa | 665.6
358.15 K, 59980 kPa | 669.6
358.15 K, 65056 kPa | 673.4
363.15 K, 5004 kPa | 604.2
363.15 K, 9965 kPa | 612.8
363.15 K, 15052 kPa | 620.5
363.15 K, 19925 kPa | 627.1
363.15 K, 25013 kPa | 633.3
363.15 K, 29929 kPa | 638.9
363.15 K, 35008 kPa | 644.2
363.15 K, 39979 kPa | 649.1
363.15 K, 45062 kPa | 653.9
363.15 K, 50011 kPa | 658.2
363.15 K, 54995 kPa | 662.4
363.15 K, 60039 kPa | 666.4
363.15 K, 65041 kPa | 670.2
